{"source": "patent US10905764B2", "about": "“Hydrated food” (Taiyokagaku Co., Ltd., priority 2005, dated 2021)", "key": {"mice": {"tested_on": "mice", "type": "in vivo", "details": "oral administration of theanine by 5 g/kg", "excerpt": "Theanine used in the invention has a high security. […] Furthermore, theanine is known as a principal component of deliciousness of tea and used as a food additive for use as gustatory. An amount of theanine to be added is not limited under the Food Sanitation Law."}, "[1]": {"assay": "Dissolution / water solubility", "details": "in the hydrated food"}}}
{"smiles": "CCNC(=O)CC[C@H](N)C(=O)O", "note": "[theanine, L-theanine]", "values": [{"measurement": "mortality in acute toxicity test", "setting": "mice", "result": "no mice died"}, {"measurement": "upper limit of dissolution", "setting": "[1]", "result": 250, "unit": "mg/mL"}]}
